Source: patent US6962931B2, “Self-emulsifying formulations of cholesteryl ester transfer protein inhibitors” (Pfizer Inc., priority 2001, dated 2005)
One block for each molecule: values may come before it.

What was measured:
[1] = Microsolubility estimate by repeated addition of vehicle; type: physicochemical
Method: (§1) For CETP inhibitors where quantities were limited, an estimate of solubility was obtained by addition of vehicle to a known quantity of the compound and mixing in an ultrasonicator bath for 90 minutes, followed by overnight equilibration at ambient temperature. Addition of vehicle was repeated until a solution was achieved.
as §1, with “limited or the samples were amorphous solids,” for “limited,”, “achieved. From the total volume of vehicle added to solubilize the CETP inhibitor compound, the solubility value, or so-called microsolubility, was calculated by the equation: Weight of sample (mgA)/vehicle volume (mL)=Microsolubility (mgA/mL)” for “achieved.”

[2] = Extent of emulsification, droplet size by optical microscope; type: physicochemical
Method: The extent of emulsification was determined by mixing the preconcentrate and water in a ratio of 1:100 and 1:10 by gentle inversion (5×), visual inspection, and examination under an optical microscope, using a polarizing filter to check for the appearance of crystals. Droplet size determined by this approach is expressed as the upper limit for the average droplet size, since submicron droplets cannot be detected by this method.

[3] = Equilibrium solubility in excipients, vehicles and emulsion preconcentrates; type: physicochemical
Method: The solubility of CETP inhibitors in excipients and in formulations was determined by adding an excess of compound to the medium in question. The mixture was agitated by rotation over a period of days at ambient temperature until the concentration in solution had reached an equilibrium as judged by similar measurements for consecutive time points. Concentrations were measured by filtration of aliquots with a PTFE syringe filter and assay by HPLC as described in Example 11.
The solubility of crystalline CETP inhibitors in representative vehicles was determined by adding an excess of compound to the vehicle in question. The mixture was agitated by rotation over a period of days at ambient temperature until the concentration in solution had reached equilibrium as judged by similar measurements for consecutive time points. Concentrations were measured by filtration of aliquots with a PTFE syringe filter and assayed by HPLC.
The concentrations of CETP inhibitor in each vehicle were assayed at intervals by dilution of aliquots into acetonitrile and gradient HPLC analysis on a Water Symmetry C-8 column (3.9×150 mm, 5 micron) at 30° C. at a flow rate of 1 mL/min. […] The detection method was UV absorbance at 210 nm.

[4] = Pharmacokinetics in dogs; type: in vivo, Male Beagle dogs; settings: for Cmax / Tmax: male, Beagle, dog, plasma, po
Method: Male Beagle dogs (n=6) between the ages of 2-5 and weighing 6-12 kg were dosed with capsules followed by 50 mL of water. […] The dogs were either fasted or fed just prior to dosing with 14 g of dry dog food and 8 gm olive oil. The same set of dogs were used for all formulations, except where indicated. […]
Unless otherwise indicated, results are for the fasted state. Miglyol® softgels have a very low fasted exposure and thus a high food effect. The fasted exposure is higher than that for crystalline suspension, while the fed exposure using this high oil meal is the same. Thus Miglyol softgels provide a lower food effect than crystalline drug. At the same dose of 90 mgA, formulations such as A, O, and C that include surfactants and cosolvent have much higher fasted exposures and only a ca. 3× food effect. The fed exposures are also higher than for Miglyol® 812 softgels and crystalline drug. Poorer fasted exposure was obtained for Formulation WW, which contains a high level of ethyl lactate as a cosolvent.

[5] = Emulsion from oil solution plus equal volume of water: particle size and stability; type: physicochemical
Method: An emulsion was prepared by combining 1 volume of oil solution with an equal volume of de-ionized water. […] The emulsion is then stirred continuously to maintain homogeneity.
An emulsion was prepared by combining 1 volume of oil solution with an equal volume of de-ionized water. This mixture was stirred for 10 minutes and then vortex mixed for 2 minutes. […] It was stirred continuously to maintain homogeneity.
An emulsion was prepared by combining combining 1 volume of oil solution with an equal volume of de-ionized water. This mixture was stirred for 10 minutes and then vortex mixed for 2 minutes. […] It was stirred continuously to maintain homogeneity.

[6] = Dynamic light scattering particle size analysis of emulsions; type: physicochemical
Method: Preliminary particle size analysis data has been obtained on selected formulations using a dynamic light scattering particle size analyzer (ZetaPals, Brookhaven Instruments, Inc.) for measurement of sub-micron particle distribution. The formulation solutions were diluted 1:100 in HPLC-grade water (previously filtered through a 0.22 μm syringe filter). The resulting mixture was gently inverted five times to create the emulsion. Each emulsion sample was then analyzed at a temperature of 37° C. Triplicate measurements were made at each time point (0, 30 min).

[7] = equilibrium, vehicle Miglyol 812
[8] = equilibrium, vehicle Miglyol 812/propylene carbonate/Cremophor EL (60/20/20)
[9] = 90 mg, Fed, Miglyol 812/Triacetin/Cremophor RH40/Capmul MCM (20/30/20/30)
[10] = 90 mg, fasted, Miglyol 812/Triacetin/Cremophor RH40/Capmul MCM (20/30/20/30)
[11] = preconcentrate Miglyol 812/Triacetin/Polysorbate 80/Capmul MCM 22/27/20/31 % v/v
[12] = 60 mg, fasted, Miglyol 812/Triacetin/Polysorbate 80/Capmul MCM (22/27/20/31)

- Solubility ([1]; Capmul MCM, oil or lipid, thermodynamic from solid, read-out: Microsolubility): < 100 mg/mL
- Solubility ([1]; Crodamol GTCC, oil or lipid, thermodynamic from solid, read-out: Microsolubility): < 20 mg/mL
- Solubility ([1]; Crodamol GTCC/Capmul MCM/Polysorbate 80 (40/40/20), oil or lipid, thermodynamic from solid, read-out: Microsolubility): < 100 mg/mL
- Solubility ([1]; Olive oil, oil or lipid, thermodynamic from solid, read-out: Microsolubility): < 100 mg/mL
- Solubility ([1]; PEG 400, organic solvent or mixture, thermodynamic from solid, read-out: Microsolubility): < 100 mg/mL
- Solubility ([1]; oil or lipid, thermodynamic from solid, read-out: Microsolubility): < 100 mg/mL
- Solubility ([1]; preconcentrate Miglyol 812/Triacetin/Polysorbate 80/Capmul MCM 20/30/20/30 % v/v, amorphous solid): ≧100 mgA/mL
- Ave Droplet Size (1:100 dilution) ([2]; preconcentrate Miglyol 812/Triacetin/Polysorbate 80/Capmul MCM 20/30/20/30 % v/v): <5 μ
Compound: CCC(CC)CC1(C(=O)Nc2ccccc2SC(=O)C(C)C)CCCCC1 [Compound B, Propanethioic acid, 2-methyl-, S-[2-[[[1-(2-ethylbutyl)cyclohexyl]carbonyl]amino]phenyl]ester]

- Solubility ([3]; equilibrium, vehicle Capmul MCM): 58 mgA/ml
- Solubility ([3]; equilibrium, vehicle Cremophor EL): 18 mgA/ml
- Solubility [3, 7]: 61 mgA/ml
- Solubility ([3]; equilibrium, vehicle Miglyol 812/Cremophor EL 80/20): 51 mgA/ml
- Solubility [3, 8]: 208 mgA/ml
- Solubility ([3]; equilibrium, vehicle Olive oil): 13 mgA/ml
- Solubility ([3]; equilibrium, vehicle Olive oil/Cremophor EL 80/20): 14 mgA/ml
- Solubility ([3]; equilibrium, vehicle Triacetin): 239 mgA/ml
- Solubility ([3]; preconcentrate Miglyol 812/Triacetin/Cremophor RH40/Capmul MCM 20/30/20/30 % v/v): 172 mgA/mL
- AUG 0-tlast ([4]; Fed, 90 mg, Miglyol 812/Triacetin/Cremophor RH40/Capmul MCM (20/30/20/30), Tlast 24 hr): 4840 ± 1230 ng·h/mL
- AUG 0-tlast ([4]; fasted, 90 mg, 100 mg/mL in Miglyol 812/Triacetin/Cremophor RH40/Capmul MCM (20/30/20/30), Tlast 24 hr): 3450 ± 960 ng·h/mL
- Cmax [4, 9]: 1200 ± 410 ng/mL
- Tmax [4, 9]: 1.5 h
- Cmax [4, 10]: 860 ± 310 ng/mL
- Tmax [4, 10]: 1.7 h
Compound: CC[C@@H]1C[C@H](N(Cc2cc(C(F)(F)F)cc(C(F)(F)F)c2)C(C)=O)c2cc(C(F)(F)F)ccc2N1C(=O)OC(C)C [Compound D, [2R,4S] 4-[acetyl-(3,5-bis-trifluoromethyl-benzyl)-amino]-2-ethyl-6-trifluoromethyl-3,4-dihydro-2H-quinoline-1-carboxylic acid isopropyl ester]
- chemical degradation or crystallization ([5]; Example 19 oil after storage for 8 days or emulsion after 24 hr): No chemical degradation based on HPLC analysis or crystallization based on microscopic examination was detected

- Solubility [3, 7]: 167 mgA/ml
- Solubility [3, 8]: 394 mgA/ml
- Solubility ([3]; equilibrium, vehicle Olive oil): 39 mgA/ml
- Solubility [3, 11]: 308 mgA/mL
- Ave Droplet Size (1:100 dilution) [2, 11]: <2 μ
- Mean Diam. ([6]; 30 min., 100 mg/mL in Miglyol 812/Triacetin/Polysorbate 80/Capmul MCM (22/27/20/31)): 175 nm
- Mean Diam. ([6]; 30 min., 200 mg/mL in Miglyol 812/Triacetin/Polysorbate 80/Capmul MCM (22/27/20/31)): 251 ± 45 nm
- Mean Diam. ([6]; Initial, 100 mg/mL in Miglyol 812/Triacetin/Polysorbate 80/Capmul MCM (22/27/20/31)): 181 nm
- Mean Diam. ([6]; Initial, 200 mg/mL in Miglyol 812/Triacetin/Polysorbate 80/Capmul MCM (22/27/20/31)): 239 ± 17 nm
- AUG 0-tlast ([4]; fasted, 60 mg, 100 mg/mL in Miglyol 812/Triacetin/Polysorbate 80/Capmul MCM (22/27/20/31), Tlast 48 hr): 2900 ± 670 ng·h/mL
- Cmax [4, 12]: 200 ± 140 ng/mL
- Tmax [4, 12]: 1.5 h
- average particle size of emulsion ([5]; Example 15 oil solution (Miglyol 812/propylene carbonate/Cremophor EL, 275 mg/g) plus equal volume water): less than 10 microns
Compound: CC[C@@H]1C[C@H](N(Cc2cc(C(F)(F)F)cc(C(F)(F)F)c2)C(=O)OC)c2cc(C(F)(F)F)ccc2N1C(=O)OC(C)C [Compound E, [2R,4S] 4-[(3,5-Bis-trifluoromethyl-benzyl)-methoxycarbonyl-amino]-2-ethyl-6-trifluoromethyl-3,4-dihydro-2H-quinoline-1-carboxylic acid isopropyl ester]
- chemical degradation or crystallization ([5]; Example 15 oil or emulsion after storage for 24 hr, HPLC, microscopy): No chemical degradation based on HPLC analysis or crystallization based on microscopic examination was detected
